Data reported in patent publication US20220204437A1, “New Kaurane analogues, their preparation and therapeutically uses” (KEY PHARMA BIOMEDICAL INC., priority 2019, published 2022).

How the values were obtained:
[1] = DOX alone or DOX co-treated with the compound
[2] = tested on: Doxorubicin-induced cardiotoxicity; assay: Protection against Doxorubicin-induced cardiotoxicity / cardiac dysfunctions in vivo; conditions: among the synthesized new kaurane analogues
[3] = tested on: cardiac toxicity animal induced by other drugs used for chemotherapy; assay: Cardiac toxicity animal induced by other chemotherapy drugs (anthracyclines: epirubicin, daunorubicin, aclarubicin); format: in vivo; conditions: cardiac toxicity induced by anthracyclines including epirubicin
[4] = tested on: cardiac ischemia animal model by coronary ligation; assay: Cardiac ischemia animal model by coronary ligation; format: in vivo; conditions: for area of infraction / cardiac contractility / number of micro-blood vessels: coronary ligation, in comparison of control; for function of failing heart due to acute coronary ligation / occurrence of arrhythmia induced by acute ischemia: in vivo
From the text: This invention disclosed that compound 1 and 2 can increased the function of failing heart due to acute coronary ligation.

[5] = tested on: chronic cardiac hypertrophy and heart failure animal induced by TAC; assay: Chronic cardiac hypertrophy and heart failure animal induced by TAC (Thoracic aorta constriction); format: in vivo; conditions: for interstitial collagen deposition (histo-pathology) / number of myofibroblasts (histo-pathology) / size of cardiomyocytes (histo-pathology): treated 4 weeks, in comparing to control; for cardiac contractility: treated for consecutive 4 weeks after the surgery, in comparing of control animals
Protocol: Furthermore, in an embodiment of this invention, a chronic cardiac hypertrophy and heart failure animal was induced by TAC (Thoracic aorta constriction) . The animal was treated with compound 1 and 2 for consecutive 4 weeks after the surgery.

[6] = tested on: drug induced diabetes animal model; assay: Drug induced diabetes animal model with cardiomyopathy; format: in vivo; conditions: cardiomyopathy developed after 4 weeks; treatment for 2 weeks
From the text: In other embodiment, this invention disclosed that in a drug induced diabetes animal model, cardiomyopathy was developed after 4 weeks. However, the cardiac inflammatory changes were diminished after treatment of compound 1 and 2 for 2 weeks.

[7] = tested on: cerebral ischemia animal model; assay: Cerebral ischemia animal model; format: in vivo; conditions: in comparison of control

## COc1cccc2c1C(=O)c1c(O)c3c(c(O)c1C2=O)C[C@@](O)(C(=O)CO)C[C@@H]3O[C@H]1C[C@H](N)[C@H](O)[C@H](C)O1 [DOX, Doxorubicin, reference compound]
[1]
  LC50 of DOX: 51.56 µM

## C[C@]12CC[C@@H]3C(CC[C@H]4[C@@]3(C)CCC[C@@]4(C)C(=O)O)(C1)[C@H](C(=O)O)[C@H]2O [compound 1, (4R, 4aS, 7S, 8R, 9S, 11aS, 11lbS)-8-hydroxy-4,9, 11b-trimethyltetradecahydro-6a, 9-methanocyclohepta[a]naphthalene-4,7-dicarboxylic acid]
[2]
  protective activity against Doxorubicin-induced cardiotoxicity: maximum protective activity
[3]
  effects in term of function and pathology: Signiant beneficial effects
[4]
  area of infraction: reduced
  cardiac contractility: significantly increased
  number of micro-blood vessels: increased
  function of failing heart due to acute coronary ligation: increased
  occurrence of arrhythmia induced by acute ischemia: reduced
[5]
  interstitial collagen deposition (histo-pathology): reduced
  number of myofibroblasts (histo-pathology): reduced
  size of cardiomyocytes (histo-pathology): significant reduction
  cardiac contractility: significantly enhanced
[6]
  cardiac inflammatory changes: diminished
[7]
  area of infraction: significantly reduced
  movement and behavers: improved
[1]
  LC50 of DOX: 66.62 µM

## C[C@]12CC[C@@H]3C(CC[C@H]4[C@@]3(C)CCC[C@@]4(C)C(=O)O)(C1)[C@H](CO)C2=O [compound 3, (4R, 4aS, 7R, 9S, 11aS, 11bS)-7-(hydroxymethyl)-4,9, 11b-trimethyl-8-oxotetradecahydro-6a, 9-methanocyclohepta[a]naphthalene-4-carboxylic acid]
[1]
  LC50 of DOX: 74.83 µM

## C[C@]12CC[C@@H]3C(CC[C@H]4[C@@]3(C)CCC[C@@]4(C)C(=O)O)(C1)[C@H](C=O)[C@H]2O [compound 2, (4R, 4aS, 7S, 8R, 9S, 11aS, 11bS)-7-formyl-8-hydroxy-4,9, llb-trimethyltetradecahydro-6a, 9-methanocyclohepta[a]naphthalene-4-carboxylic acid]
[2]
  protective activity against Doxorubicin-induced cardiotoxicity: maximum protective activity
[3]
  effects in term of function and pathology: Signiant beneficial effects
[4]
  area of infraction: reduced
  cardiac contractility: significantly increased
  number of micro-blood vessels: increased
  function of failing heart due to acute coronary ligation: increased
  occurrence of arrhythmia induced by acute ischemia: reduced
[5]
  interstitial collagen deposition (histo-pathology): reduced
  number of myofibroblasts (histo-pathology): reduced
  size of cardiomyocytes (histo-pathology): significant reduction
  cardiac contractility: significantly enhanced
[6]
  cardiac inflammatory changes: diminished
[7]
  area of infraction: significantly reduced
  movement and behavers: improved
[1]
  LC50 of DOX: 92.61 µM
